Experimental data as given in ChEMBL document CHEMBL1122424, “S-carbobenzoxyglutathione: a competitive inhibitor of mammalian glyoxalase II” (J Med Chem, 1983).
Calls of active or inactive are those of the source. No cut-off for these calls is given here.

How the values were obtained:
[1] = molecular target: Hydroxyacylglutathione hydrolase, mitochondrial (Rattus norvegicus, UniProt O35952); assay: (§1) […] inhibitory activity against glyoxalase II in rat liver
[2] = molecular target: T1, Lactoylglutathione lyase (Rattus norvegicus) (UniProt Q6P7Q4); assay: […] inhibitory activity against glyoxalase I in rat liver; no inhibition; type: functional
T1 sequence (whole entry): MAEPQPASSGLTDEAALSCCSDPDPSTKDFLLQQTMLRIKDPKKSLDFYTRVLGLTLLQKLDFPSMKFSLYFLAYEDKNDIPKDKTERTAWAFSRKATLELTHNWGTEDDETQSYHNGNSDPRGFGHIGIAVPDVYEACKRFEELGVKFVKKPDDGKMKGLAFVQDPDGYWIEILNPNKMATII

[3] = molecular target: Lactoylglutathione lyase (Mus musculus) (UniProt Q9CPU0); assay: […] inhibitory activity against glyoxalase I in mouse liver; no inhibition; type: functional
Chain of Lactoylglutathione lyase (Mus musculus) (Q9CPU0 2-184 limits assumed): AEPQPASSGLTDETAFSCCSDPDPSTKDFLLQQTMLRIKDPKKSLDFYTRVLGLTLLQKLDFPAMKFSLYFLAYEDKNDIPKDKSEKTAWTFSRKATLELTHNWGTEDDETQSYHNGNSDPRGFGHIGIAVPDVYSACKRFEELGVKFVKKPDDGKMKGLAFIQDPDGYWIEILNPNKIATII

[4] = molecular target: Hydroxyacylglutathione hydrolase, mitochondrial (Rattus norvegicus) (UniProt O35952); assay: as §1; type: functional; settings: concentration not given here
[5] = test system: Lactoylglutathione lyase (Ovis aries); assay: […] inhibitory activity against glyoxalase I in sheep liver; no inhibition
[6] = molecular target: T1, Lactoylglutathione lyase (Rattus norvegicus); assay: In vivo inhibitory activity against glyoxalase I in rat liver; type: functional; settings: concentration not given here

N[C@@H](CCC(=O)N[C@@H](CSC(=O)OCc1ccccc1)C(=O)NCC(=O)O)C(=O)O
Ki [1]: 65 µM
Activity [2]: inactive
Activity [3]: inactive
inhibition [4]: > 50%
Activity [5]: inactive
inhibition [6]: < 10%
